Data: patent US6352703B1, “Compositions and methods for detecting and killing termites” (Board of Supervisors of Louisiana State University and …, priority 1997, dated 2002)

What was measured:
[1] = tested on: C. formosanus; details: in vivo
[2] = tested on: Mucor spp. fungus; experiment: Antifungal filter paper disk test, trial 2 (cornmeal agar, sealed plates); assay type: cell-based
Experimental: A second trial was conducted with filter papers treated with naphthalene, BHT, or 2,6-di-t-butyl-4-methyl-phenol (“DBP”). A fungal suspension was prepared as in the first trial. Spore concentrations were determined with a counting chamber (Petroff-Hauser, Hauser Scientific Partnership, Horsham, Pa.). Concentrations were adjusted to approximately 10^7 spores/mL. In the first trial fungus grew on SDA quickly, forming a thick mat that soon filled the entire petri dish. Therefore, in the second trial cornmeal agar (CMA, Difco Laboratories, Detroit, Mich.) was used to slow the growth of the fungus during the six-day observation period. A thin layer of the spore suspension was spread over the surface of each of 24 cornmeal agar plates using a turntable and bent glass rod, as previously described.
(§1) Filter paper disks were treated with naphthalene, BHT, or DBP at rates of 2 μg, 20 μg, or 200 μg, prepared as in the first trial. On each plate were placed four filter paper disks spaced equidistant from one another (one disk containing each of the three application rates of one of the test compounds, and one disk containing only the hexane control). Each plate was then covered and sealed with parafilm to reduce the release of volatile compounds. The concentration of naphthalene in the headspace was 0.04 μg/cm^3; except in trial 3 below, in which the concentration was 34.6 μg/cm^3, about 700 times the concentration we have observed in termite nest materials. The growth of fungus on and around each filter paper disk was recorded three, four, and five days after treatment. The experiment was then repeated, increasing the rates of naphthalene, BHT, and DBP to 200 μg, 600 μg, and 1000 μg (trial 3).
(§2) Fungal growth on each filter paper disk was recorded by making tracings of the disks, inking in areas with visible fungal growth. The fraction of each disk covered by fungus was measured by making photocopy enlargements of these drawings, cutting out the enlarged disks, weighing the entire circle, cutting out the inked areas of the circle (corresponding to fungal growth), and weighing the latter. The fraction of each circle covered with fungus was then calculated as the ratio of these weights. (The weight of the photocopy toner was negligible.)
(§3) Coverage of filter paper disks was analyzed by the ANOVA procedure (SAS Institute, Version 6.11, Cary, N.C.). Tukey's Studentized Range (HSD) Test was used for comparison of mean separations (α=0.05).

[3] = tested on: Mucor spp. fungus; experiment: Antifungal filter paper disk test, trial 3 (cornmeal agar, sealed plates, increased rates); assay type: cell-based
Experimental: A second trial was conducted with filter papers treated with naphthalene, BHT, or 2,6-di-t-butyl-4-methyl-phenol (“DBP”). A fungal suspension was prepared as in the first trial. Spore concentrations were determined with a counting chamber (Petroff-Hauser, Hauser Scientific Partnership, Horsham, Pa.). Concentrations were adjusted to approximately 10^7 spores/mL. In the first trial fungus grew on SDA quickly, forming a thick mat that soon filled the entire petri dish. […] A thin layer of the spore suspension was spread over the surface of each of 24 cornmeal agar plates using a turntable and bent glass rod, as previously described.
as §1, with “The growth of fungus on and around each filter paper disk was recorded three, four, and five days after treatment.” left out
as §2, §3

[4] = tested on: Mucor spp. fungus; experiment: Antifungal filter paper disk test, trial 1 (Sabouraud dextrose agar); assay type: cell-based
Experimental: Mucor was isolated from a Formosan termite nest in our laboratory, a nest originally collected from a cottonwood tree in New Orleans, La. The fungus comprised a white mat that covered large areas of the nest that had been exposed to air and water. Fungus was scraped from the nest and suspended in distilled, de-ionized water with a Pasteur pipette. This suspension was streaked on Sabouraud dextrose agar (“SDA”) (Difco Laboratories, Detroit, Mich.) in 100×15 mm plates containing 20 mL SDA. Pure cultures were obtained from individual colonies on these plates as needed. Cultures were maintained on SDA plates in a 27° C. incubator without light until used.
Filter paper disks (Whatman #1, 1.5 cm) were treated with naphthalene, butylated hydroxytoluene (BHT), dioctyl phthalate, or adipic dioctyl ester, at rates of 2 μg, 20 μg, or 200 μg, dissolved in 100 μL hexane. Controls were treated with hexane alone. For each treatment, just prior to testing for antifungal properties, 1 mL of the hexane solution and ten filter paper disks were placed in a vial, and N2 was used to evaporate the hexane.
A suspension was prepared by scraping Mucor conidia (spores) from the culture plates, and mixing into distilled, deionized water with a Pasteur pipette. A thin layer of this suspension was spread over the surface of each of 130 SDA plates by placing each plate onto an inoculation turntable (Fisher Scientific, Hampton, N.H.), pipetting 0.2 mL of the suspension into the center of the plate, spinning the turntable, and spreading the suspension onto the agar with a bent glass rod. The plates were allowed to dry for two hours. A treated filter paper disk was then placed in the center of each plate (10 plates/treatment), and the plates were incubated at 27° C. The extent to which each filter paper disk was covered by fungus was determined by visual inspection (by the method described in greater detail below) after four, five, and six days.
as §2, §3

[5] = tested on: imported red fire ant, Solenopsis invicta Buren; experiment: Effect of naphthalene on ants (tolerance comparison); assay type: in vivo; details: naphthalene concentrations causing no visible effect on termites
[6] = tested on: Formosan termites; experiment: Feeding bioassay; assay type: in vivo, Coptotermes formosanus; details: ergosterol standard
Experimental: Sterols identified include 3-β-dihydrocholesterol; (24s)-stigmast-5-en-3-ol; and methyl(3-β,5-α)ergostan-3-ol. […] The bioassay was conducted according to the general procedures of U.S. application Ser. No. 08/243,950, filed May 17, 1994.

[7] = tested on: ants; experiment: Killing of ants; details: in vivo
[8] = trial 2, 0 μg disk (hexane only) on the same sealed plate as the compound's treated disks
[9] = trial 3, 0 μg disk (hexane only) on the same sealed plate as the compound's treated disks

Structure (SMILES) | Fraction Covered, Day 3 (mean percentage of filter paper disk surface covered by fungus) [2, 8] [%] | Fraction Covered, Day 4 (mean percentage of filter paper disk surface covered by fungus) [2, 8] [%] | Fraction Covered, Day 5 (mean percentage of filter paper disk surface covered by fungus) [2, 8] [%] | Fraction Covered, Day 3 (mean percentage of filter paper disk surface covered by fungus) ([2]; trial 2, rate 2 μg per disk) [%] | Fraction Covered, Day 4 (mean percentage of filter paper disk surface covered by fungus) ([2]; trial 2, rate 2 μg per disk) [%] | Fraction Covered, Day 5 (mean percentage of filter paper disk surface covered by fungus) ([2]; trial 2, rate 2 μg per disk) [%] | Fraction Covered, Day 3 (mean percentage of filter paper disk surface covered by fungus) ([2]; trial 2, rate 20 μg per disk) [%] | Fraction Covered, Day 4 (mean percentage of filter paper disk surface covered by fungus) ([2]; trial 2, rate 20 μg per disk) [%] | Fraction Covered, Day 5 (mean percentage of filter paper disk surface covered by fungus) ([2]; trial 2, rate 20 μg per disk) [%] | Fraction Covered, Day 3 (mean percentage of filter paper disk surface covered by fungus) ([2]; trial 2, rate 200 μg per disk) [%] | Fraction Covered, Day 4 (mean percentage of filter paper disk surface covered by fungus) ([2]; trial 2, rate 200 μg per disk) [%] | Fraction Covered, Day 5 (mean percentage of filter paper disk surface covered by fungus) ([2]; trial 2, rate 200 μg per disk) [%] | Fraction Covered, Day 3 (mean percentage of filter paper disk surface covered by fungus) [3, 9] [%] | Fraction Covered, Day 4 (mean percentage of filter paper disk surface covered by fungus) [3, 9] [%] | Fraction Covered, Day 5 (mean percentage of filter paper disk surface covered by fungus) [3, 9] [%] | Fraction Covered, Day 3 (mean percentage of filter paper disk surface covered by fungus) ([3]; trial 3, rate 200 μg per disk) [%] | Fraction Covered, Day 4 (mean percentage of filter paper disk surface covered by fungus) ([3]; trial 3, rate 200 μg per disk) [%] | Fraction Covered, Day 5 (mean percentage of filter paper disk surface covered by fungus) ([3]; trial 3, rate 200 μg per disk) [%] | Fraction Covered, Day 3 (mean percentage of filter paper disk surface covered by fungus) ([3]; trial 3, rate 600 μg per disk) [%] | Fraction Covered, Day 4 (mean percentage of filter paper disk surface covered by fungus) ([3]; trial 3, rate 600 μg per disk) [%] | further results
c1ccc2ccccc2c1 [Naphthalene, naphthalene] | 98 | 99 | 95 | 100 | 99 | 100 | 98 | 98 | 99 | 100 | 100 | 100 | 0 | 0 | 0 | 0 | 0 | 0 | 0 | 0 | Tolerance of C. formosanus to naphthalene compared with S. invicta [1]: significantly higher tolerance; Visible effect on termites [1]: no visible effect; Inhibition of growth of the fungus, comparison among compounds ([3]; of the five compounds tested): most effective at inhibiting the growth of this fungus; Fungal growth on filter paper disks ([3]; trial 3, all naphthalene treatments (0-1000 μg)): no fungal growth; Fungal growth on treated disks ([3]; trial 3, eight days after treatment): still free of fungus; Fungal growth on treated disks ([3]; trial 3, fourth day): still no growth; Fraction Covered, Day 5 (mean percentage of filter paper disk surface covered by fungus) ([3]; trial 3, rate 600 μg per disk): 0%; Fraction Covered, Day 3 (mean percentage of filter paper disk surface covered by fungus) ([3]; trial 3, rate 1000 μg per disk): 0%; Fraction Covered, Day 4 (mean percentage of filter paper disk surface covered by fungus) ([3]; trial 3, rate 1000 μg per disk): 0%; Fraction Covered, Day 5 (mean percentage of filter paper disk surface covered by fungus) ([3]; trial 3, rate 1000 μg per disk): 0%; Fraction Covered, Day 4 (mean percentage of filter paper disk surface covered by fungus) ([4]; trial 1, rate 2 μg per disk): 71%; Fraction Covered, Day 5 (mean percentage of filter paper disk surface covered by fungus) ([4]; trial 1, rate 2 μg per disk): 86%; Fraction covered, Day 6 (mean percentage of filter paper disk surface covered by fungus) ([4]; trial 1, rate 2 μg per disk): 98%; Fraction Covered, Day 4 (mean percentage of filter paper disk surface covered by fungus) ([4]; trial 1, rate 20 μg per disk): 64%; Fraction Covered, Day 5 (mean percentage of filter paper disk surface covered by fungus) ([4]; trial 1, rate 20 μg per disk): 97%; Fraction covered, Day 6 (mean percentage of filter paper disk surface covered by fungus) ([4]; trial 1, rate 20 μg per disk): 100%; Fraction Covered, Day 4 (mean percentage of filter paper disk surface covered by fungus) ([4]; trial 1, rate 200 μg per disk): 90%; Fraction Covered, Day 5 (mean percentage of filter paper disk surface covered by fungus) ([4]; trial 1, rate 200 μg per disk): 92%; Fraction covered, Day 6 (mean percentage of filter paper disk surface covered by fungus) ([4]; trial 1, rate 200 μg per disk): 100%; Effect on ants [5]: paralyzed
CC(C)[C@@H](C)/C=C/[C@@H](C)[C@H]1CC[C@H]2C3=CC=C4C[C@@H](O)CC[C@]4(C)[C@H]3CC[C@]12C [ergosterol] |  |  |  |  |  |  |  |  |  |  |  |  |  |  |  |  |  |  |  |  | Feeding stimulation [6]: stimulated the feeding
Cc1cc(C(C)(C)C)c(O)c(C(C)(C)C)c1 [BHT, butylated hydroxytoluene] | 93 | 94 | 96 | 85 | 90 | 90 | 93 | 95 | 98 | 95 | 99 | 100 | 59 | 100 | 100 | 30 | 96 | 95 | 53 | 97 | Effectiveness at killing ants compared with naphthalene [7]: even more effective than naphthalene at killing ants; Fungal coverage of treated disks ([3]; trial 3, fourth day): ~100%; Fraction Covered, Day 5 (mean percentage of filter paper disk surface covered by fungus) ([3]; trial 3, rate 600 μg per disk): 100%; Fraction Covered, Day 3 (mean percentage of filter paper disk surface covered by fungus) ([3]; trial 3, rate 1000 μg per disk): 16%; Fraction Covered, Day 4 (mean percentage of filter paper disk surface covered by fungus) ([3]; trial 3, rate 1000 μg per disk): 99%; Fraction Covered, Day 5 (mean percentage of filter paper disk surface covered by fungus) ([3]; trial 3, rate 1000 μg per disk): 100%; Coverage of filter paper versus the DBP or naphthalene treatments ([3]; trial 3, three days after treatment, P=0.0001): significantly greater; Fraction Covered, Day 4 (mean percentage of filter paper disk surface covered by fungus) ([4]; trial 1, rate 2 μg per disk): 70%; Fraction Covered, Day 5 (mean percentage of filter paper disk surface covered by fungus) ([4]; trial 1, rate 2 μg per disk): 85%; Fraction covered, Day 6 (mean percentage of filter paper disk surface covered by fungus) ([4]; trial 1, rate 2 μg per disk): 92%; Fraction Covered, Day 4 (mean percentage of filter paper disk surface covered by fungus) ([4]; trial 1, rate 20 μg per disk): 27%; Fraction Covered, Day 5 (mean percentage of filter paper disk surface covered by fungus) ([4]; trial 1, rate 20 μg per disk): 65%; Fraction covered, Day 6 (mean percentage of filter paper disk surface covered by fungus) ([4]; trial 1, rate 20 μg per disk): 76%; Fraction Covered, Day 4 (mean percentage of filter paper disk surface covered by fungus) ([4]; trial 1, rate 200 μg per disk): 28%; Fraction Covered, Day 5 (mean percentage of filter paper disk surface covered by fungus) ([4]; trial 1, rate 200 μg per disk): 56%; Fraction covered, Day 6 (mean percentage of filter paper disk surface covered by fungus) ([4]; trial 1, rate 200 μg per disk): 93%
